The assay addresses benzodiazepine site of the GABAA receptor. Kind of assay: Ligand binding assay of Example 6 (3H-Ro15-1788 competition, purified rat cortical membranes). The note with it: ligand binding assay of Example 6; Table 5 Ki.

Molecules are shown by their SMILES.

Broadly, the Ki is a measure of affinity in units of concentration, obtained from inhibition or displacement. Read a high Ki as lower affinity.

Consider `Cc1nc2c(CCCO)c(Cn3ccnc3-c3ncccc3F)ncn2n1` [Compound 228, 3-{7-[2-(3-Fluoro-pyridin-2-yl)-imidazol-1-ylmethyl]-2-methyl-[1,2,4]triazolo[1,5-c]pyrimidin-8-yl}-propan-1-ol], for which the inhibition constant Ki was less than 1 µM.
